What follows are compounds tested against T1, ATP-dependent potassium channels (K+ATP) (Rattus norvegicus, UniProt Q09429) (assay: [3H]glibenclamide binding to ATP-dependent potassium channels of rat cerebral cortex). Conditions: 1 h; 300 nM; specific displacement of [3H]glibenclamide 0.1 nM; read-out: KATP binding (300 nM).
T1 construct: the potassium channels derive from a rat's cerebral cortex; tissue CEREP; host or cells: rat cerebral cortex
Method: The results shown reflect the specific affinity of the inventive compounds on the ATP-dependent (K^+ATP) potassium channels. The specific binding measured corresponds to the difference between the total binding and the non-specific binding determined in the presence of an excess of non-marked reference ligand (glibenclamide 1 μM). The inventive compounds were tested at doses between 3 and 300 nM: the higher the percentage measured, the stronger the affinity of the compound for the ATP-dependent potassium channels.
The binding test was carried out at CEREP (Celle L'Evescault, France (86)) according to a protocol inspired by Angel et al. (Angel and Bidet 1991): the potassium channels derive from a rat's cerebral cortex and the reference compound is [^3H]glibenclamide at 0.1 nM. The protocol consists of incubation at 22° C. for one hour.

T1 sequence (Q09429 whole entry): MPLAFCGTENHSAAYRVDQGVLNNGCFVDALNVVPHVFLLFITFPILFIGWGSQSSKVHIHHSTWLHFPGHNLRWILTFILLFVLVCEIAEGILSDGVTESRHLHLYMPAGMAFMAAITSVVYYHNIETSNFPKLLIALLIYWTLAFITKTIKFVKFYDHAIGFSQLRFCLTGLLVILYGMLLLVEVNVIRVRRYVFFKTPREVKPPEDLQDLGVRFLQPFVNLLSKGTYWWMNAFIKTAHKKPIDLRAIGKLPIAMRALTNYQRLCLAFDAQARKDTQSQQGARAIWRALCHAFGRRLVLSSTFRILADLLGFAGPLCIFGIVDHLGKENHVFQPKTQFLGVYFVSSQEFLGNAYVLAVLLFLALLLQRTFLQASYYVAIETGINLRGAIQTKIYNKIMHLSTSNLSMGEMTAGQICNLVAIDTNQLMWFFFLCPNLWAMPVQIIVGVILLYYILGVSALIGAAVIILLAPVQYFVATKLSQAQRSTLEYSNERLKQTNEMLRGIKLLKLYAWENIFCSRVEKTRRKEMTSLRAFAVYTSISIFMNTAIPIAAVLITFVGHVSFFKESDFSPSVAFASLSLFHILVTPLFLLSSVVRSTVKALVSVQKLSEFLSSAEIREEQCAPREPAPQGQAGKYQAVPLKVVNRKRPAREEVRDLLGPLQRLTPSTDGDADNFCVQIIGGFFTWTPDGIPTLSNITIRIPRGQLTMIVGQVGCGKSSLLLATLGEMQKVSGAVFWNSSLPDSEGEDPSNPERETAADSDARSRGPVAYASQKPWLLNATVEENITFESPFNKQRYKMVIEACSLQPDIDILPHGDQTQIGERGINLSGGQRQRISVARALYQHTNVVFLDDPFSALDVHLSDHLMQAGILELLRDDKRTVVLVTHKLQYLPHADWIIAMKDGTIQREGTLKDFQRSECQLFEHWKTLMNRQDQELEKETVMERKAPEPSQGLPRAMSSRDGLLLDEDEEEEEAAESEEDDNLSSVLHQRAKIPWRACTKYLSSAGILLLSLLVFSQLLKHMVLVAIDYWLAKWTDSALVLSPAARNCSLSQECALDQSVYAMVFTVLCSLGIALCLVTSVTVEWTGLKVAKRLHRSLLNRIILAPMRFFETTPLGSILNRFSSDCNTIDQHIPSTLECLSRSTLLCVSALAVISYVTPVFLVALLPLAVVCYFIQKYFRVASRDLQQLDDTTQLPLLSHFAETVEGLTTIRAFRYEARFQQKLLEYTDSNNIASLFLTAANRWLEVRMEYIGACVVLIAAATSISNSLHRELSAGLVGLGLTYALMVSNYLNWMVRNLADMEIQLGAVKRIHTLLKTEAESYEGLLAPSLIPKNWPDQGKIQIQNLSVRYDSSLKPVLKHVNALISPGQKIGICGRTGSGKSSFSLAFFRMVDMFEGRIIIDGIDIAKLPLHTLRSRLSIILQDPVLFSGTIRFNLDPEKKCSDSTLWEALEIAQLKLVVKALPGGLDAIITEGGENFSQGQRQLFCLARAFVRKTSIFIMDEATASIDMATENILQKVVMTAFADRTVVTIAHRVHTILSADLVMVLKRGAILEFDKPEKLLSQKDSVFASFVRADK
T1 sequence (P70673 whole entry partner): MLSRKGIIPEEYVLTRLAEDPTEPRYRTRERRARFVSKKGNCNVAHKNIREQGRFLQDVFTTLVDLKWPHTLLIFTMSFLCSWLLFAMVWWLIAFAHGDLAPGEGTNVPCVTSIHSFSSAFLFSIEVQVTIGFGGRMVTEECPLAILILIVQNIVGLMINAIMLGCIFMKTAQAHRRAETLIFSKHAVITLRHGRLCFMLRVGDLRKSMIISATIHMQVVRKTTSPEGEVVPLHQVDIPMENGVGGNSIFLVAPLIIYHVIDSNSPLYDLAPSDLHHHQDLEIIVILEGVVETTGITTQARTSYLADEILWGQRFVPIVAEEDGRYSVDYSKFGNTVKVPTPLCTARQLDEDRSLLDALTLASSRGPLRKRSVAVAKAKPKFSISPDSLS

Structure (SMILES) | inhibition at 0.3 µM [%]
CC(C)(Oc1ccc(CC(=O)NC(c2ccccc2)c2ccccc2N2CCCCC2)cc1)C(=O)O (stereo not drawn) [Compound 3, 2-[4-[1-(1-phenyl-1-(2-(1-piperidinyl)phenyl)methyl)aminocarbonylmethyl]phenoxy]-2-methylpropanoic acid] | 75
CC(C)(Oc1ccc(CC(=O)NC(c2ccccc2N2CCCCC2)C2CCCCC2)cc1)C(=O)O (stereo not drawn) [Compound 6, 2-[4-[1-(1-cyclohexyl-1-(2-(1-piperidinyl)phenyl)methyl)aminocarbonylmethyl]phenoxy]-2-methylpropanoic acid] | 47
CC(C)CC(NC(=O)Cc1ccc(OC(C)(C)C(=O)O)cc1)c1cccc(N2CCCCC2)c1 (stereo not drawn) [Compound 8, 2-[4-[1-(3-methyl-1-(3-(1-piperidinyl)phenyl)butyl)aminocarbonylmethyl]phenoxy]-2-methylpropanoic acid] | 48
CC(C)CC(NC(=O)Cc1ccc(OC(C)(C)C(=O)O)cc1)c1ccccc1N1CCCC1 (stereo not drawn) [Compound 16, 2-[4-[1-(3-methyl-1-(2-(1-pyrrolidinyl)phenyl)butyl)aminocarbonylmethyl]phenoxy]-2-methylpropanoic acid] | 76
CC(C)CC(NC(=O)Cc1ccc(OC(C)(C)C(=O)O)cc1)c1ccccc1N1CCCCCC1 (stereo not drawn) [Compound 18, 2-[4-[1-(3-methyl-1-(2-(1-hexamethyleneimino)phenyl)butyl)aminocarbonylmethyl]phenoxy]-2-methylpropanoic acid] | 69
CCN(CC)c1ccccc1C(CC(C)C)NC(=O)Cc1ccc(OC(C)(C)C(=O)O)cc1 (stereo not drawn) [Compound 20, 2-[4-[1-(3-methyl-1-(2-(diethylamino)phenyl)butyl)aminocarbonylmethyl]phenoxy]-2-methylpropanoic acid] | 85
CC(C)CC(NC(=O)Cc1ccc(OC(C)(C)C(=O)O)cc1)c1cc(Cl)ccc1N1CCCCC1 (stereo not drawn) [Compound 22, 2-[4-[1-(3-methyl-1-(2-(1-piperidinyl)-5-(chloro)phenyl)butyl)aminocarbonylmethyl]phenoxy]-2-methylpropanoic acid] | 88
CC(C)CC(NC(=O)Cc1ccc(OCC(=O)O)cc1)c1ccccc1N1CCCCC1 (stereo not drawn) [Compound 23, 2-[4-[1-(3-methyl-1-(2-(1-piperidinyl)phenyl)butyl)aminocarbonylmethyl]phenoxy]acetic acid] | 97
CC(C)CC(NC(=O)Cc1ccc(OC(C)C(=O)O)cc1)c1ccccc1N1CCCCC1 (stereo not drawn) [Compound 24, 2-[4-[1-(3-methyl-1-(2-(1-piperidinyl)phenyl)butyl)aminocarbonylmethyl]phenoxy]propanoic acid] | 93
CCC(Oc1ccc(CC(=O)NC(CC(C)C)c2ccccc2N2CCCCC2)cc1)C(=O)O (stereo not drawn) [Compound 25, 2-[4-[1-(3-methyl-1-(2-(1-piperidinyl)phenyl)butyl)aminocarbonylmethyl]phenoxy]butanoic acid] | 91
CC(C)CC(NC(=O)Cc1ccc(OC(C(=O)O)C(C)C)cc1)c1ccccc1N1CCCCC1 (stereo not drawn) [Compound 26, 2-[4-[1-(3-methyl-1-(2-(1-piperidinyl)phenyl)butyl)aminocarbonylmethyl]phenoxy]-3-methylbutanoic acid] | 92
CC(C)CC(NC(=O)Cc1ccc(OC(C(=O)O)c2ccccc2)cc1)c1ccccc1N1CCCCC1 (stereo not drawn) [Compound 27, 2-[4-[1-(3-methyl-1-(2-(1-piperidinyl)phenyl)butyl)aminocarbonylmethyl]phenoxy]-2-phenylacetic acid] | 95
CC(C)CC(NC(=O)Cc1cccc(OC(C)(C)C(=O)O)c1)c1ccccc1N1CCCCC1 (stereo not drawn) [Compound 29, 2-[3-[1-(3-methyl-1-(2-(1-piperidinyl)phenyl)butyl)aminocarbonylmethyl]phenoxy]-2-methylpropanoic acid] | 15
CCCCC(c1ccccc1N1CCCCC1)N(CC(C)C)C(=O)Cc1ccc(OC(C)(C)C(=O)O)cc1 (stereo not drawn) [Compound 35, 2-[4-[N-isobutyl-N-(1-(2-(1-piperidinyl)phenyl)pentyl)aminocarbonylmethyl]phenoxy]-2-methylpropanoic acid] | 22
CC(C)CC(NC(=O)Cc1ccc(OC(C)(C)C(=O)O)cc1)c1cc(Br)ccc1N1CCCCC1 (stereo not drawn) [Compound 37, 2-[4-[1-(3-methyl-1-(2-(1-piperidinyl)-5-(bromo)phenyl)butyl)aminocarbonylmethyl]phenoxy]-2-methylpropanoic acid] | 76
CCCCC(NC(=O)Cc1ccc(OC(C)(C)C(=O)O)cc1)c1ccccc1S(=O)(=O)c1ccccc1 (stereo not drawn) [Compound 41, 2-[4-[1-(1-(2-(phenylsulfonyl)phenyl)pentyl)aminocarbonylmethyl]phenoxy]-2-methylpropanoic acid] | 12
CCCCC(NC(=O)Cc1ccc(OC(C)(C)C(=O)O)cc1)c1ccccc1O (stereo not drawn) [Compound 44, 2-[4-[1-(1-(2-(hydroxy)phenyl)pentyl)aminocarbonylmethyl]phenoxy]-2-methylpropanoic acid] | 48
CC(C)(Oc1ccc(CC(=O)NC(CCc2ccccc2)c2ccccc2N2CCCCC2)cc1)C(=O)O (stereo not drawn) [Compound 51, 2-[4-[1-(3-phenyl-1-(2-(1-piperidinyl)phenyl)propyl)aminocarbonylmethyl]phenoxy]-2-methylpropanoic acid] | 32
CC(C)CC(NC(=O)Cc1ccc(OC(C)(C)C(=O)O)c(Cl)c1)c1ccccc1N1CCCCC1 (stereo not drawn) [Compound 56, 2-[2-chloro-4-[1-(3-methyl-1-(2-(1-piperidinyl)phenyl)butyl)aminocarbonylmethyl]phenoxy]-2-methylpropanoic acid] | 49
CC(C)CC(NC(=O)Cc1ccc(OC(C)(C)C(=O)NS(C)(=O)=O)cc1)c1ccccc1N1CCCCC1 (stereo not drawn) [Compound 58, N-[methylsulfonyl]-2-[4-[1-(3-methyl-1-(2-(1-piperidinyl)phenyl)butyl)aminocarbonylmethyl]phenoxy]-2-methylpropanamide] | 94
CC(C)(Oc1ccc(CC(=O)NC(Cc2ccccc2)c2ccccc2N2CCCCC2)cc1)C(=O)NS(C)(=O)=O (stereo not drawn) [Compound 62, N-[methylsulfonyl]-2-[4-[1-(2-phenyl-1-(2-(1-piperidinyl)phenyl)ethyl)aminocarbonylmethyl]phenoxy]-2-methylpropanamide] | 46
